Source: ChEMBL document CHEMBL5614367, “Hydroxamic acid hybrids: Histone deacetylase inhibitors with anticancer therapeutic potency” (Eur J Med Chem, 2023)
Each block holds one molecule with its values, some of them ahead of it.

Assays:
[1] = system: NCI-H2122; assay: Cytotoxicity against human NCI-H2122 cells assessed as inhibition of cell growth measured after 72 hrs by CellTiter-Glo luminescent viability assay; type: functional, cell-based; conditions: NCI-H2122, 72 h
[2] = system: Daudi; assay: Cytotoxicity against human Daudi cells assessed as inhibition of cell growth measured after 72 hrs by CellTiter-Glo luminescent viability assay; type: functional, cell-based
[3] = system: NCI-H460; assay: Cytotoxicity against human NCI-H460 cells assessed as inhibition of cell growth measured after 72 hrs by CellTiter-Glo luminescent viability assay; type: functional, cell-based; conditions: NCI-H460, 72 h
[4] = Cmax in tumor of female SCID mouse xenografted with human Daudi cells at 25 to 100 mg/kg, iv measured upto 24 hrs by LC-MS/MS analysis; type: ADME, organism-based, Neoplasm; conditions: dose 25-100 mg/kg
[5] = molecular target: Histone deacetylase 2 (Homo sapiens, UniProt Q92769); assay: Inhibition of HDAC2 (unknown origin)
[6] = molecular target: Histone deacetylase 11 (Homo sapiens, UniProt Q96DB2); assay: Inhibition of HDAC11 (unknown origin)
[7] = AUC in tumor of female SCID mouse xenografted with human Daudi cells at 25 to 100 mg/kg, iv measured upto 24 hrs by LC-MS/MS analysis; type: ADME, organism-based, Neoplasm; conditions: in vivo, dose 25-100 mg/kg
[8] = system: COLO 205; assay: Cytotoxicity against human COLO 205 cells assessed as inhibition of cell growth measured after 72 hrs by CellTiter-Glo luminescent viability assay; type: functional, cell-based; conditions: COLO 205, 72 h
[9] = molecular target: Histone deacetylase 3 (Homo sapiens, UniProt O15379); assay: Inhibition of HDAC3 (unknown origin)
[10] = system: NCI-H1975; assay: Cytotoxicity against human NCI-H1975 cells assessed as inhibition of cell growth measured after 72 hrs by CellTiter-Glo luminescent viability assay; type: functional, cell-based; conditions: NCI-H1975, 72 h
[11] = system: SW-620; assay: Cytotoxicity against human SW620 cells assessed as inhibition of cell growth measured after 72 hrs by CellTiter-Glo luminescent viability assay; type: functional, cell-based; conditions: SW-620, 72 h
[12] = system: TMD8; assay: Cytotoxicity against human TMD8 cells assessed as inhibition of cell growth measured after 72 hrs by CellTiter-Glo luminescent viability assay; type: functional, cell-based; conditions: TMD8, 72 h
[13] = system: Calu-6; assay: Cytotoxicity against human Calu-6 cells assessed as inhibition of cell growth measured after 72 hrs by CellTiter-Glo luminescent viability assay; type: functional, cell-based; conditions: Calu-6, 72 h
[14] = Inhibition of PI3K (unknown origin); design: species or system Homo sapiens
[15] = system: K562; assay: Cytotoxicity against human K562 cells assessed as inhibition of cell growth measured after 72 hrs by CellTiter-Glo luminescent viability assay; type: functional, cell-based; conditions: K562, 72 h
[16] = system: MC-38; assay: Cytotoxicity against mouse MC38 cells assessed as inhibition of cell growth measured after 72 hrs by CellTiter-Glo luminescent viability assay; type: functional, cell-based; conditions: MC-38, 72 h
[17] = system: LoVo; assay: Cytotoxicity against human LoVo cells assessed as inhibition of cell growth measured after 72 hrs by CellTiter-Glo luminescent viability assay; type: functional, cell-based
[18] = molecular target: Polyamine deacetylase HDAC10 (Homo sapiens, UniProt Q969S8); assay: Inhibition of HDAC10 (unknown origin)
[19] = Half life in tumor of female SCID mouse xenografted with human Daudi cells at 25 to 100 mg/kg, iv measured upto 24 hrs by LC-MS/MS analysis; type: ADME, organism-based, Neoplasm; conditions: dose 25-100 mg/kg
[20] = system: Ramos; assay: Cytotoxicity against human Ramos cells assessed as inhibition of cell growth measured after 72 hrs by CellTiter-Glo luminescent viability assay; type: functional, cell-based
[21] = molecular target: Histone deacetylase 1 (Homo sapiens, UniProt Q13547); assay: Inhibition of HDAC1 (unknown origin)
[22] = system: THP-1; assay: Cytotoxicity against human THP-1 cells assessed as inhibition of cell growth measured after 72 hrs by CellTiter-Glo luminescent viability assay; type: functional, cell-based; conditions: THP-1, 72 h
[23] = system: HCT-116; assay: Cytotoxicity against human HCT-116 cells assessed as inhibition of cell growth measured after 72 hrs by CellTiter-Glo luminescent viability assay; type: functional, cell-based; conditions: HCT-116, 72 h
[24] = system: NCI-H358; assay: Cytotoxicity against human NCI-H358 cells assessed as inhibition of cell growth measured after 72 hrs by CellTiter-Glo luminescent viability assay; type: functional, cell-based; conditions: NCI-H358, 72 h
[25] = system: SW480; assay: Cytotoxicity against human SW480 cells assessed as inhibition of cell growth measured after 72 hrs by CellTiter-Glo luminescent viability assay; type: functional, cell-based; conditions: SW480, 72 h
[26] = system: PC-9; assay: Cytotoxicity against human PC-9 cells assessed as inhibition of cell growth measured after 72 hrs by CellTiter-Glo luminescent viability assay; type: functional, cell-based; conditions: PC-9, 72 h
[27] = system: U-937; assay: Cytotoxicity against human U-937 cells assessed as inhibition of cell growth measured after 72 hrs by CellTiter-Glo luminescent viability assay; type: functional, cell-based; conditions: U-937, 72 h
[28] = system: DU-145; assay: cells; type: functional, cell-based; conditions: Homo sapiens, DU-145, 48 h; pooled result: one value given for 6 cell lines, strains, targets or settings
[29] = molecular target: Epidermal growth factor receptor (Homo sapiens) (UniProt P00533); assay: Inhibition of EGFR (unknown origin) at 10 uM preincubated for 0.5 hrs followed by substrate addition and measured after 1 hr by ADP-Glo assay relative to control; conditions: time 1.5 hrs
[30] = molecular target: Histone deacetylase; assay: Inhibition of human HDAC extracted from human HeLa cell nuclear extract incubated for 30 mins by fluorometric analysis; type: subcellular, Nucleus
[31] = system: A20; assay: Antitumor activity against mouse A20 cells implanted in mouse assessed as tumor weight inhibition at 15 mg/kg, ip measured after 12 days relative to control; type: functional; conditions: A20, 288 h, time 12 day
[32] = molecular target: T1, Histone deacetylase 8 (Homo sapiens, UniProt Q9BY41); assay: Inhibition of HDAC8 (unknown origin)
T1 sequence (Q9BY41 whole entry): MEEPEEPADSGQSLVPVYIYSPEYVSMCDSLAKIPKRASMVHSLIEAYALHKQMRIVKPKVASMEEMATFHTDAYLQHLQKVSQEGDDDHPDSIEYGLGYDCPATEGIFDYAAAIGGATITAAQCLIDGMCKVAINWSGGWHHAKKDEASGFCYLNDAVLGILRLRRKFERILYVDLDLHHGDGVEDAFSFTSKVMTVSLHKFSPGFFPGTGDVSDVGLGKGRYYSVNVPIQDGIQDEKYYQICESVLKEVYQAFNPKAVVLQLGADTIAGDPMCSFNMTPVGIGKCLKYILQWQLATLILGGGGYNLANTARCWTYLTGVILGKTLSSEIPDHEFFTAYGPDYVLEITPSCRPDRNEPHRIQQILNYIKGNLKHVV

[33] = system: HCT-116; assay: Antitumor activity against human HCT-116 cells xenografted in mouse assessed as tumor weight inhibition at 30 to 150 mg/kg, ip relative to control; type: functional; conditions: dose 30-150 mg/kg
[34] = system: K562; assay: cells; type: functional, cell-based; conditions: Homo sapiens, K562, 72 h; pooled result: one value given for 11 cell lines, strains, targets or settings
[35] = system: EL4; assay: Antitumor activity against mouse EL4 cells implanted in mouse assessed as tumor weight inhibition at 15 mg/kg, ip measured after 12 days relative to control; type: functional; conditions: EL4, 288 h, time 12 day
[36] = system: HGC-27; assay: Antitumor activity against human HGC-27 cells xenografted in mouse assessed as tumor weight inhibition at 30 to 150 mg/kg, ip relative to control; type: functional; conditions: dose 30-150 mg/kg

Chain of Histone deacetylase 2 (Q92769 whole entry): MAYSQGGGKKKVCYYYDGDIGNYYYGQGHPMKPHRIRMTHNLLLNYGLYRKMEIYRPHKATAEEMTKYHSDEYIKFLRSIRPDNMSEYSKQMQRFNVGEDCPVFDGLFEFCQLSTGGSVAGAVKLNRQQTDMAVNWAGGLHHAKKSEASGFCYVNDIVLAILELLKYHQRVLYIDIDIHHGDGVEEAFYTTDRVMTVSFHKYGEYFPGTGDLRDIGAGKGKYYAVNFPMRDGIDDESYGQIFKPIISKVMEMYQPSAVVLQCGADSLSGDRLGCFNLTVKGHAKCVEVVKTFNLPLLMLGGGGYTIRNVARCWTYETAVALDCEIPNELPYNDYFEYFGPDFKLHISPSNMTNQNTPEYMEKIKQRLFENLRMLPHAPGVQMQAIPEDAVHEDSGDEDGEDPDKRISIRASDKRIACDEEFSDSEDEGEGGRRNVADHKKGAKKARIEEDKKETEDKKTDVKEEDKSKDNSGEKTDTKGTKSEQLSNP
Chain of Histone deacetylase 1 (Q13547 whole entry): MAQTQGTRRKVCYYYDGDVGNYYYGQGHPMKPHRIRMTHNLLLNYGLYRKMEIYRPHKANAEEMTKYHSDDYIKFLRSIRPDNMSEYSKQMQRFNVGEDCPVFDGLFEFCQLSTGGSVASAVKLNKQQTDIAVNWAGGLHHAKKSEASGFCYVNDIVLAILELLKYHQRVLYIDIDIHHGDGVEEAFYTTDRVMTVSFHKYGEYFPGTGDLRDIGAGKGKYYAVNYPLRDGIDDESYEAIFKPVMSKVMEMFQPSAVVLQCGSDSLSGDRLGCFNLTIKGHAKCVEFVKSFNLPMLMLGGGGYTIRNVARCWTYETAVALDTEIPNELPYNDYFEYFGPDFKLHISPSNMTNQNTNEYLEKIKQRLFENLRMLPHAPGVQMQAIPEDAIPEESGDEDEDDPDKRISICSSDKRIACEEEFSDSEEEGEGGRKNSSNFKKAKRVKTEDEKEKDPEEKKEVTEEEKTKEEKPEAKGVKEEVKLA
Chain of Histone deacetylase 11 (Q96DB2 whole entry): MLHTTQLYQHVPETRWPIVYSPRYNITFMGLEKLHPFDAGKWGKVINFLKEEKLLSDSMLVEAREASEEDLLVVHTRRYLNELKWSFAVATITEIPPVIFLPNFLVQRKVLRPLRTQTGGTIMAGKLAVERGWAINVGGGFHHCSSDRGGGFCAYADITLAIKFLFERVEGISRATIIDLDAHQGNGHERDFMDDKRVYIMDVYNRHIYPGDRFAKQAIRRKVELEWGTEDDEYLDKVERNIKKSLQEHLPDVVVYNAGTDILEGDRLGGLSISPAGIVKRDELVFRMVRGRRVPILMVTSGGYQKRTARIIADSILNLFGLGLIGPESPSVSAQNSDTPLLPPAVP
Chain of Polyamine deacetylase HDAC10 (Q969S8 whole entry): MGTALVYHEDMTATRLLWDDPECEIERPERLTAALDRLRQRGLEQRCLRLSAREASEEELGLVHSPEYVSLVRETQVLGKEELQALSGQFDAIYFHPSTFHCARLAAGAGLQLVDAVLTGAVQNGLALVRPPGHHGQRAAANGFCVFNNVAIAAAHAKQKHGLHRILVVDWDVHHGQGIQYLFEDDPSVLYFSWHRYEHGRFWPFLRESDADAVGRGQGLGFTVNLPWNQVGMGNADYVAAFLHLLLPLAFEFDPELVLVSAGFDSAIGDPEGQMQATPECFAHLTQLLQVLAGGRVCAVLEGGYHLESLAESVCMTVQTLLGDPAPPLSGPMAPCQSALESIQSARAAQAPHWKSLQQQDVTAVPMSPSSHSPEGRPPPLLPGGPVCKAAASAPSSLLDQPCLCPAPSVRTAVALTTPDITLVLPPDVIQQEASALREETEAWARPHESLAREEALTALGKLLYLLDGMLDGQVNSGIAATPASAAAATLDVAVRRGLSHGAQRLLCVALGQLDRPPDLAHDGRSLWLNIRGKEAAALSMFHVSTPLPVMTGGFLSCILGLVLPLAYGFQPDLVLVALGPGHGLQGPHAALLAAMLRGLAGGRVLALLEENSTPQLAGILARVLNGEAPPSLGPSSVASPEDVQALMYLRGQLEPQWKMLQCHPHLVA
Chain of Histone deacetylase 3 (O15379 whole entry): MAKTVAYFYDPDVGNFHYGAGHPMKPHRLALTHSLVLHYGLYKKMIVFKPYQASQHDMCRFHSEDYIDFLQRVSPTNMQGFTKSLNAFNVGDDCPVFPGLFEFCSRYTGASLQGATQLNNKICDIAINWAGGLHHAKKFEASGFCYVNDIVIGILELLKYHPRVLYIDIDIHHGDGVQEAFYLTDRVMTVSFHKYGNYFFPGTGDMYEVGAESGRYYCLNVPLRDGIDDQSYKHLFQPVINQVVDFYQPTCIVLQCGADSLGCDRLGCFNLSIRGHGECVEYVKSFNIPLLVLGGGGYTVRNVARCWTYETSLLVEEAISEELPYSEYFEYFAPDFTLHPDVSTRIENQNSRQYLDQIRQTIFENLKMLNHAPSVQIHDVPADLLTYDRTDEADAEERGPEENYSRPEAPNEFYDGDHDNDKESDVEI
Chain of Epidermal growth factor receptor (Homo sapiens) (P00533 whole entry): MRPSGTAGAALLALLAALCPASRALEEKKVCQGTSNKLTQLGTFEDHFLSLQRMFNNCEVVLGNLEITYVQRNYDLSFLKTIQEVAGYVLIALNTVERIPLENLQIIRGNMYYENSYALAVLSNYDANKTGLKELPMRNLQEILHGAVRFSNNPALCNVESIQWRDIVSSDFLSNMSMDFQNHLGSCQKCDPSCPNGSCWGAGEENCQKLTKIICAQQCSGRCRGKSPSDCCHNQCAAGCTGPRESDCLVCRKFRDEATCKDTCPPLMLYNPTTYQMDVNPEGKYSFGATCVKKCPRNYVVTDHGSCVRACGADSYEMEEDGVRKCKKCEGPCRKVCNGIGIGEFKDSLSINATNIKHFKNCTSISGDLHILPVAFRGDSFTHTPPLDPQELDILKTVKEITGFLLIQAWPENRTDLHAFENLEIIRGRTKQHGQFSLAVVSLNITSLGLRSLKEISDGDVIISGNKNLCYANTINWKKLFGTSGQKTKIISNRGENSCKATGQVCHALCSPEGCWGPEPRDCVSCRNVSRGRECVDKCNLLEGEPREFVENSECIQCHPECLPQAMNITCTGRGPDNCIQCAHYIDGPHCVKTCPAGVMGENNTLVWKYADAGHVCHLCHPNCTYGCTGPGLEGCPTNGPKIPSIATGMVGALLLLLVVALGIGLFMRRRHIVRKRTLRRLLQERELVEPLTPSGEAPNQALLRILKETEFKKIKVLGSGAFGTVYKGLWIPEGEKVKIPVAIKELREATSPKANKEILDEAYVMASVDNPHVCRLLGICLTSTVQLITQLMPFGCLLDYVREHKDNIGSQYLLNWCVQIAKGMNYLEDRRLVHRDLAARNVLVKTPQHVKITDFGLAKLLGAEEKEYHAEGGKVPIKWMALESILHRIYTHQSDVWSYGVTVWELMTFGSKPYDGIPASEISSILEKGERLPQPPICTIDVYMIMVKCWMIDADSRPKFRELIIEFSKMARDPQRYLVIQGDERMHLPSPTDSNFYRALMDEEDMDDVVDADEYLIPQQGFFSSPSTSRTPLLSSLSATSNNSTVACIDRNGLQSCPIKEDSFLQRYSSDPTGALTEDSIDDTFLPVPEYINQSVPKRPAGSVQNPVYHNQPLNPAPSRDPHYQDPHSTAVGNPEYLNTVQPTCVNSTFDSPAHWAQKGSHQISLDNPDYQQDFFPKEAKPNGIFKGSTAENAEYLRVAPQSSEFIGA

Cmax [4]: 14500 ng/g
IC50 [5]: 0.9 nM
IC50 [6]: 0.9 nM
AUC [7]: 17157.9 ng·h/g
IC50 [9]: 0.9 nM
IC50 [14]: 9.3 nM
IC50 [18]: 0.9 nM
half-life [19]: 7.9 h
IC50 [21]: 0.9 nM
Structure (SMILES): CNc1ccc(-c2nc(N3CCOCC3)c3sc(CN(C)c4ncc(C(=O)NO)cn4)cc3n2)cn1
IC50 [1]: 0.3 nM
IC50 [2]: 0.3 nM
IC50 [3]: 0.3 nM
IC50 [8]: 0.3 nM
IC50 [10]: 0.3 nM
IC50 [11]: 0.3 nM
IC50 [12]: 0.3 nM
IC50 [13]: 0.3 nM
IC50 [15]: 0.3 nM
IC50 [16]: 0.3 nM
IC50 [17]: 0.3 nM
IC50 [20]: 0.3 nM
IC50 [22]: 0.3 nM
IC50 [23]: 0.3 nM
IC50 [24]: 0.3 nM
IC50 [25]: 0.3 nM
IC50 [26]: 0.3 nM
IC50 [27]: 0.3 nM

IC50 [28]: 1180 nM
inhibition [29]: 75%
IC50 [30]: 474 nM
Structure (SMILES): O=C(CCCCCCC(=O)Nc1ccc2ncnc(Nc3cccc(Cl)c3)c2c1)NO

IC50 [32]: 1.4 nM
IC50 [5]: 1.4 nM
IC50 [34]: 23 nM
Structure (SMILES): COc1ncc(-c2cc(OCCCCCCC(=O)NO)c3ncnc(C)c3c2)cc1F
inhibition in vivo at 15 mg/kg [31]: 60%
inhibition (INH) [33]: 45.8%
inhibition in vivo at 15 mg/kg [35]: 78.1%
inhibition (INH) [36]: 62.6%
